Measured values published in US6005099A, “Glucosamine disaccharides, method for their preparation, pharmaceutical composition comprising same, and their use” (priority 1993, dated 1999).

Tested on: peritoneal carcinomatosis (Pro b cells)
Assay: In vivo anti-tumor activity against peritoneal carcinomatosis in BDIX rats
Details: for Number of rats with carcinomatoses of class 0 / Number of rats with carcinomatoses of class 1 / Number of rats with carcinomatoses of class 2 / Number of rats with carcinomatoses of class 3 / Number of rats with carcinomatoses of class 4: 10 rats, 6 weeks; for Number of rats with carcinomatoses of class 0: class 0: no tumor nodules visible; for Number of rats with carcinomatoses of class 1: class 1: a few nodules less than 0.2 cm; for Number of rats with carcinomatoses of class 2: class 2: nodules too many to be counted, up to 0.5 cm; for Number of rats with carcinomatoses of class 3: class 3: tumors up to 1 cm; for Number of rats with carcinomatoses of class 4: class 4: cavity entirely invaded by tumors
Protocol: The in vivo biological activity of disaccharide A was investigated for anti-tumor activity against peritoneal carcinomatosis induced in BDIX rats. Pro b cells obtained according to the method of Martin (Martin, F. et al, International Journal of Cancer, Volume 32, pages 623-627 [1983]) were injected intraperitoneally in rat (10^6 cells per rat). After 10 days numerous solid nodules appear in the mesenterium in the milky spots and progressively invade the peritoneal cavity (see Lagadec, P. et al, Invasion and Metastasis, Volume 7, pages 83-95 [1987]). Hemorrhagic ascitis appeared after 4-5 weeks and all rats died within 8-12 weeks.
Immunotherapy started 14 days after injection of the tumoral Pro b cells. The treatment consisted of intraperitoneal injections of disaccharide A; doses 0.1, 0.3 and 0.8 mg/kg bodyweight. Disaccharide A was dissolved in an aqueous solution of 0.9% NaCl and 0.1% triethylamine. The rats received five injections once every 3.5 days. A control group was injected with the aqueous solution. Both groups comprised 10 rats.
6 Weeks after the injection of the tumoral cells autopsy was carried out. The extent of peritoneal carcinomatosis was evaluated blindly and the rats were classified in the order of increasing carcinomatosis.
The classification of the nodule size is as follows:
class 0: no tumor nodules visible;
class 1: a few nodules of size less than 0.2 cm;
class 2: nodules too many to be counted size up to 0.5 cm;
class 3: tumors in size up to 1 cm;
class 4: tumoral cavity entirely invaded by tumors, size a few cm.
The statistical significance of the anti-tumoral activity was calculated by the Kruskal-Wallis test (1) or (2) using variance analysis.

With `CCCCCCCCCCCC(=O)O[C@H](CCCCCCCCCCC)CC(=O)N[C@H]1[C@H](OC[C@H]2O[C@H](OP(=O)(O)O)[C@H](NC(=O)C[C@H](O)CCCCCCCCCCC)[C@@H](O)[C@@H]2O)O[C@H](CO)[C@@H](OP(=O)(O)O)[C@@H]1O` [disaccharide A, 2-Deoxy-6-O-[2-deoxy-2-[(R)-3-dodecanoyloxytetradecanoylamino]-4-O-phosphono-β-D-glucopyranosyl]-2-[(R)-3-hydroxytetradecanoylamino]-α-D-glucopyranosyl dihydrogenphosphate] the “Ascitis volume, Average” value (0.1 mg/kg i.p.) was 7 ± 7 ml/rat, the “Ascitis volume, Limits” value (0.1 mg/kg i.p.) was 0-18 ml/rat and the “Number of rats with carcinomatoses of class 0” value (“Number of rats … of class 0” for short) (0.1 mg/kg i.p.) was 0. The “Number of rats with carcinomatoses of class 1” value (“Number of rats … of class 1” below) (0.1 mg/kg i.p.) was 2, the “Number of rats with carcinomatoses of class 2” value (shortened to “Number of rats … of class 2”) (0.1 mg/kg i.p.) was 0 and the “Number of rats with carcinomatoses of class 3” value (“Number of rats … of class 3” for short) (0.1 mg/kg i.p.) was 4. For the same molecule, the “Number of rats with carcinomatoses of class 4” value (“Number of rats … of class 4” below) (0.1 mg/kg i.p.) was 4, the “Ascitis volume, Average” value (0.3 mg/kg i.p.) was 2 ± 6 ml/rat and the “Ascitis volume, Limits” value (0.3 mg/kg i.p.) was 0-20 ml/rat. For the same molecule, the “Number of rats … of class 0” value (0.3 mg/kg i.p.) was 2, the “Number of rats … of class 1” value (0.3 mg/kg i.p.) was 3 and the “Number of rats … of class 2” value (0.3 mg/kg i.p.) was 2. The “Number of rats … of class 3” value (0.3 mg/kg i.p.) was 2, the “Number of rats … of class 4” value (0.3 mg/kg i.p.) was 1 and the “Ascitis volume, Average” value (0.8 mg/kg i.p.) was 0 ± 1 ml/rat. The “Ascitis volume, Limits” value (0.8 mg/kg i.p.) was 0-2 ml/rat, the “Number of rats … of class 0” value (0.8 mg/kg i.p.) was 1 and the “Number of rats … of class 1” value (0.8 mg/kg i.p.) was 6. The “Number of rats … of class 2” value (0.8 mg/kg i.p.) was 1, the “Number of rats … of class 3” value (0.8 mg/kg i.p.) was 1 and the “Number of rats … of class 4” value (0.8 mg/kg i.p.) was 1. For the same molecule, the “Anti-tumoral effect, in words” value (peritoneal carcinomatosis) was “dose-dependent anti-tumoral effect”.
